# Experimental data published in patent publication US11780821B2, “Inhibitors of fibroblast activation protein” (Praxis Biotech LLC, priority 2017, dated 2023).
# Read-outs that look alike come from different tables or passages of the source.
# Assays:
# Format in all cases: biochemical
# [1] = molecular target: T1, recombinant human DPPIV (rhDPPIV) (Homo sapiens, UniProt P27487); test: DPPIV enzymatic activity assay; details: H-Gly-Pro-pNA substrate
# T1 construct: purchased R&S system (so in the source)
# T1 sequence (P27487 whole entry): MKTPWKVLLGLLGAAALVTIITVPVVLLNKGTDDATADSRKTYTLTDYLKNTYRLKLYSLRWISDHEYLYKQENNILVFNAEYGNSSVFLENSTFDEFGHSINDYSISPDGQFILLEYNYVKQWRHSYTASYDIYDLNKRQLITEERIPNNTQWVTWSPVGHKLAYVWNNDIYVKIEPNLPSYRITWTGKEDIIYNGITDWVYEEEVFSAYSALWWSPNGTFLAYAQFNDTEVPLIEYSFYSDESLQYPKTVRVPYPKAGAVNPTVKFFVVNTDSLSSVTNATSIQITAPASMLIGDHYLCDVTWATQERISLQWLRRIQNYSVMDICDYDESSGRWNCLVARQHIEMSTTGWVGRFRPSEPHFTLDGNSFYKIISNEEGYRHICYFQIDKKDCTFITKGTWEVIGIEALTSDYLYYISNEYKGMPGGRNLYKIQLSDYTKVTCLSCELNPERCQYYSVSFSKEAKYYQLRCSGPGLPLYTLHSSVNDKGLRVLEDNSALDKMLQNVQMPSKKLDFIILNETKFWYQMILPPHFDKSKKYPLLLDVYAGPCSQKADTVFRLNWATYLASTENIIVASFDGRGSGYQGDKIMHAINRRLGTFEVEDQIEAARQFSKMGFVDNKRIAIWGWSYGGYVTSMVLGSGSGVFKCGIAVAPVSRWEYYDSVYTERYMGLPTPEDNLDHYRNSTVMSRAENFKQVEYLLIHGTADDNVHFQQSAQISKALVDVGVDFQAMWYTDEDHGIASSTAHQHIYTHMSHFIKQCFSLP
# [2] = molecular target: T2, recombinant human FAPα (rhFAPα) (Homo sapiens, UniProt Q12884); test: FAPα enzymatic exopeptidase (dipeptidase) activity assay; details: for inhibition at 1 µM: 1 μM test compound, Z-Gly-Pro-AMC substrate, read-out: rhFAPα (% exo inh @ 1 μM); for IC50: exopeptidase, read-out: rhFAPα (exo IC50)
# T2 construct: purchased R&S system (so in the source)
# T2 sequence (Q12884 1-760): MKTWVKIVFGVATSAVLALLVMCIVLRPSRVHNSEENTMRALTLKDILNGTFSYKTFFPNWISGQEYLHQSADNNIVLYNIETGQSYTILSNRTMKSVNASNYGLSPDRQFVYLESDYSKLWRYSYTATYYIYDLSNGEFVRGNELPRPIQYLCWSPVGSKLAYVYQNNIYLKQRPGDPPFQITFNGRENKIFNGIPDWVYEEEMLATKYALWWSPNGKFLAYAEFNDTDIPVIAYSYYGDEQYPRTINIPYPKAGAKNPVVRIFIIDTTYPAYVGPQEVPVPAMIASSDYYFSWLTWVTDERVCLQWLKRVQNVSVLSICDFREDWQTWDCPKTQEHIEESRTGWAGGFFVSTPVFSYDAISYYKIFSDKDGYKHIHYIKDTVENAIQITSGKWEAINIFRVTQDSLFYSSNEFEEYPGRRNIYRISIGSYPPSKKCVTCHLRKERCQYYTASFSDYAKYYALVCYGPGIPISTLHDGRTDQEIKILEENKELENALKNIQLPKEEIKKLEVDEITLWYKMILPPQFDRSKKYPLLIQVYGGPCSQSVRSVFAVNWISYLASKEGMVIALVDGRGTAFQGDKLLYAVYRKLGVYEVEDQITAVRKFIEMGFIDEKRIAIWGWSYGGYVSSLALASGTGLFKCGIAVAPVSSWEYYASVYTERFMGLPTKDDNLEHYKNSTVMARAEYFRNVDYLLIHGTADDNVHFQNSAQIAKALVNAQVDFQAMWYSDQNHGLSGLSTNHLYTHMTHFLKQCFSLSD
# [3] = molecular target: T3, recombinant human DPP9 (rhDPP9) (Homo sapiens, UniProt Q86TI2); test: DPP9 enzymatic activity assay; details: H-Gly-Pro-AMC substrate
# T3 construct: purchased R&S system (so in the source)
# T3 sequence (Q86TI2 whole entry): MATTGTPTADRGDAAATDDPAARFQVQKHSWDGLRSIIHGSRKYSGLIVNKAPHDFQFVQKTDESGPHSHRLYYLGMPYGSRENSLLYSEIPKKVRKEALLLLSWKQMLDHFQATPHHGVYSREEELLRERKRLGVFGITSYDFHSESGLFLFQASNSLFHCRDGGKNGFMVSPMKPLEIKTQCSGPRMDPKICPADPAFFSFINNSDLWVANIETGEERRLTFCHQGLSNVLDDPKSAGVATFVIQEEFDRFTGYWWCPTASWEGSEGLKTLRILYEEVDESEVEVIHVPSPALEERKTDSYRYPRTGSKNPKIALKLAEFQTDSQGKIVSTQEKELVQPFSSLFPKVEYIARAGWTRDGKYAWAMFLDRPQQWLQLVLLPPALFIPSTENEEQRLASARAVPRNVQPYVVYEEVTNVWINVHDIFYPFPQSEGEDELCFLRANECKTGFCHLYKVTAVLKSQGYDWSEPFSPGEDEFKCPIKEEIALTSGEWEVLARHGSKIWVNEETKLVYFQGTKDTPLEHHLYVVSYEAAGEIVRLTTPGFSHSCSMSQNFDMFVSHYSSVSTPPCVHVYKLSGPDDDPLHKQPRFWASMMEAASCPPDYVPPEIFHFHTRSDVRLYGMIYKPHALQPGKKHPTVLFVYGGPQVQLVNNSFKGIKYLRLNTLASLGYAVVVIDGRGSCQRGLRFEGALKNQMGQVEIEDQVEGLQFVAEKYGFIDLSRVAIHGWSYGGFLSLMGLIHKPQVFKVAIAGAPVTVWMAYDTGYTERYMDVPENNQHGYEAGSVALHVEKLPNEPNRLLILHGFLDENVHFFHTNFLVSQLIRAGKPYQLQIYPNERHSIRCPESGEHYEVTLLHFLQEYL
# Method: (§1) 7-Amino-4-Methylcoumarin (AMC) release was detected by measuring fluorescence at Ex/Em 380/460 nm using a Multifunction Microplate Reader (Synergy 4, Biotek). All measurements were carried out in triplicate.
# [4] = molecular target: T4, recombinant human PREP (rhPREP) (Homo sapiens, UniProt P48147); test: PREP enzymatic activity assay; details: Z-Gly-Pro-AMC substrate
# T4 sequence (P48147 1-710): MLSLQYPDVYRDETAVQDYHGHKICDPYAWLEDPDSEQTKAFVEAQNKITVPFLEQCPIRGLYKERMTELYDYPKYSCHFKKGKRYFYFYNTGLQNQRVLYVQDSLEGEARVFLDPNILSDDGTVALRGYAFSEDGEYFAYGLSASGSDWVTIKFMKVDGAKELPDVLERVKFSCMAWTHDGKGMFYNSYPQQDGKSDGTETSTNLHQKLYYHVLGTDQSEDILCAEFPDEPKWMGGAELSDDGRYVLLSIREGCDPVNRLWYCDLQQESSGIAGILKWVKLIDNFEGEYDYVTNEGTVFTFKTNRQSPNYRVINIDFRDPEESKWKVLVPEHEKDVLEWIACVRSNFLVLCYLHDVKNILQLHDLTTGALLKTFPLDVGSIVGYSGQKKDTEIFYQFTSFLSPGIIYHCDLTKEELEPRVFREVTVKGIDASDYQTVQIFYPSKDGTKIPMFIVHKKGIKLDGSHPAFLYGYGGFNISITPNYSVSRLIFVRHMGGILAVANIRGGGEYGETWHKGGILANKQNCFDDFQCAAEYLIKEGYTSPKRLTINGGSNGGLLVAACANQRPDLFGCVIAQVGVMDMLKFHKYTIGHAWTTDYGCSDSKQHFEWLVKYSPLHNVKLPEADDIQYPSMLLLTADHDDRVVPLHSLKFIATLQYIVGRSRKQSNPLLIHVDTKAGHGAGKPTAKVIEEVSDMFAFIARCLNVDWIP
# Method: as §1
SMILES,IC50 [1],inhibition at 1 µM [2],"IC50 ([2]; Table 2, Z-Gly-Pro-AMC)",IC50 ([2]; Table 3),IC50 [3],IC50 [4]
"N#C[C@@H]1CC(F)(F)CN1C(=O)CNC(=O)c1ccncc1N1CCC(N)CC1 [Compound 120, (S)-3-(4-aminopiperidin-1-yl)-N-(2-(2-cyano-4,4-difluoropyrrolidin-1-yl)-2-oxoethyl)isonicotinamide 2,2,2-trifluoroacetate]",1 to 10 µM,> 50%,< 1 µM,< 1 µM,> 10 µM,> 10 µM
N#C[C@@H]1CC(F)(F)CN1C(=O)CNC(=O)c1ccncc1Nc1ccccc1 [Compound 102],> 10 µM,> 50%,< 1 µM,< 1 µM,> 10 µM,> 10 µM
"N#C[C@@H]1CC(F)(F)CN1C(=O)CNC(=O)c1ccncc1-c1ccnc2ccccc12 [Compound 51, (S)—N-(2-(2-cyano-4,4-difluoropyrrolidin-1-yl)-2-oxoethyl)-3-(quinolin-4-yl)isonicotinamide]",1 to 10 µM,> 50%,< 1 µM,< 1 µM,> 10 µM,> 10 µM
N#C[C@@H]1CC(F)(F)CN1C(=O)CNC(=O)c1ccncc1N1CCCCC1 [Compound 42],> 10 µM,> 50%,< 1 µM,< 1 µM,> 10 µM,> 10 µM
"CC(C)(C)c1cccc(-c2cnccc2C(=O)NCC(=O)N2CC(F)(F)C[C@H]2C#N)c1 [Compound 112, (S)-3-(3-(tert-butyl)phenyl)-N-(2-(2-cyano-4,4-difluoropyrrolidin-1-yl)-2-oxoethyl)isonicotinamide]",> 10 µM,> 50%,< 1 µM,< 1 µM,> 10 µM,> 10 µM
"N#C[C@@H]1CC(F)(F)CN1C(=O)CNC(=O)c1ccncc1Nc1ccc(F)cc1 [Compound 114, (S)—N-(2-(2-cyano-4,4-difluoropyrrolidin-1-yl)-2-oxoethyl)-3-((4-fluorophenyl)amino)isonicotinamide 2,2,2-trifluoroacetate]",> 10 µM,> 50%,< 1 µM,< 1 µM,> 10 µM,> 10 µM
"CCOc1cnccc1C(=O)NCC(=O)N1CC(F)(F)C[C@H]1C#N [Compound 113, (S)—N-(2-(2-cyano-4,4-difluoropyrrolidin-1-yl)-2-oxoethyl)-3-ethoxyisonicotinamide]",> 10 µM,> 50%,< 1 µM,< 1 µM,> 10 µM,> 10 µM
"Cc1ccccc1-c1cnccc1C(=O)NCC(=O)N1CC(F)(F)C[C@H]1C#N [Compound 64, (S)—N-(2-(2-cyano-4,4-difluoropyrrolidin-1-yl)-2-oxoethyl)-3-(o-tolyl)isonicotinamide]",> 10 µM,> 50%,< 1 µM,< 1 µM,> 10 µM,> 10 µM
"N#C[C@@H]1CC(F)(F)CN1C(=O)CNC(=O)c1ccncc1Nc1ccnc2ccccc12 [Compound 119, (S)—N-(2-(2-cyano-4,4-difluoropyrrolidin-1-yl)-2-oxoethyl)-3-(quinolin-4-ylamino)isonicotinamide]",> 10 µM,> 50%,< 1 µM,< 1 µM,> 10 µM,> 10 µM
"Cc1noc(C)c1-c1cnccc1C(=O)NCC(=O)N1CC(F)(F)C[C@H]1C#N [Compound 110, (S)—N-(2-(2-cyano-4,4-difluoropyrrolidin-1-yl)-2-oxoethyl)-3-(3,5-dimethylisoxazol-4-yl)isonicotinamide]",> 10 µM,> 50%,< 1 µM,< 1 µM,> 10 µM,> 10 µM
"N#C[C@@H]1CC(F)(F)CN1C(=O)CNC(=O)c1ccc(=O)n2c1CCCCC2 [Compound 21, (S)—N-(2-(2-cyano-4,4-difluoropyrrolidin-1-yl)-2-oxoethyl)-4-oxo-4,6,7,8,9,10-hexahydropyrido[1,2-a]azepine-1-carboxamide]",> 10 µM,> 50%,< 1 µM,< 1 µM,> 10 µM,1 to 10 µM
"N#C[C@@H]1CC(F)(F)CN1C(=O)CNC(=O)c1ccncc1C1=CCCCC1 [Compound 43, N-(2-((S)-2-cyano-4,4-difluoropyrrolidin-1-yl)-2-oxoethyl)-3-(cyclohex-1-en-1-yl)isonicotinamide]",> 10 µM,> 50%,< 1 µM,< 1 µM,1 to 10 µM,> 10 µM
N#C[C@@H]1CC(F)(F)CN1C(=O)CNC(=O)c1ccncc1Oc1ccc(F)cc1 [compound 35],> 10 µM,> 50%,< 1 µM,,> 10 µM,> 10 µM
"N#C[C@@H]1CC(F)(F)CN1C(=O)CNC(=O)c1ccncc1Sc1ccccc1 [Compound 115, (S)—N-(2-(2-cyano-4,4-difluoropyrrolidin-1-yl)-2-oxoethyl)-3-(phenylthio)isonicotinamide]",> 10 µM,> 50%,< 1 µM,< 1 µM,> 10 µM,1 to 10 µM
"N#C[C@@H]1CC(F)(F)CN1C(=O)CNC(=O)c1ccncc1Oc1ccccc1 [Compound 97, (S)—N-(2-(2-cyano-4,4-difluoropyrrolidin-1-yl)-2-oxoethyl)-3-phenoxyisonicotinamide]",> 10 µM,> 50%,< 1 µM,< 1 µM,> 10 µM,> 10 µM
"N#C[C@@H]1CC(F)(F)CN1C(=O)CNC(=O)c1ccncc1Nc1cccnc1 [Compound 117, (S)—N-(2-(2-cyano-4,4-difluoropyrrolidin-1-yl)-2-oxoethyl)-3-(pyridin-3-ylamino)isonicotinamide]",> 10 µM,> 50%,< 1 µM,< 1 µM,> 10 µM,1 to 10 µM
"N#C[C@@H]1CC(F)(F)CN1C(=O)CNC(=O)c1ccncc1-c1ccc2c(c1)CCN2 [Compound 104, (S)—N-(2-(2-cyano-4,4-difluoropyrrolidin-1-yl)-2-oxoethyl)-3-(indolin-5-yl)isonicotinamide]",> 10 µM,> 50%,< 1 µM,< 1 µM,> 10 µM,> 10 µM
"N#C[C@@H]1CC(F)(F)CN1C(=O)CNC(=O)c1ccncc1NC1CCNCC1 [Compound 118, (S)—N-(2-(2-cyano-4,4-difluoropyrrolidin-1-yl)-2-oxoethyl)-3-(piperidin-4-ylamino)isonicotinamide]",> 10 µM,> 50%,< 1 µM,< 1 µM,> 10 µM,> 10 µM
